# Test results as given in patent US12037419B2 (The Feinstein Institutes for Medical Research, priority 2016, dated 2024).
# Tests used:
# [1] = test system: allogeneic primary human CD4 T cells; assay: Allogeneic mixed lymphocyte reaction; format: cell-based; settings: HMGB1 3 μg/ml, C1q 25 μg/ml
# Description: Allogeneic CD4 T lymphocytes were isolated from blood using the Naïve CD4+ T cell isolation kit II (Miltenyi Biotec.) following the manufacturer's protocol. Cells were analyzed by flow cytometry (>90%). T cells were labeled with 5 μM Cell Trace Violet cell proliferation kit (Thermo Fisher Scientific), added to mono/macrophages at a density of 2×10^5 cells/well (a 1:2 ratio) in the presence of 1 μg/ml anti-CD3 (OKT3, eBioscience). Control cultures contained medium only or T cells or mono/macrophages alone. After 4 days, cells were stained with FITC-anti-CD4, PerCPCy 5.5-CD14, PE-LAIR-1 and fixable viability dyes (FVD, eBioscience) for 20 min at room temperature and subsequently washed and fixed. Live cells (FVD-negative cells) were then gated on CD4-positive, and cell trace violet was assessed by flow cytometry on a BD LSR II (BD Biosciences). Cell proliferation was analyzed as described (51). The % divided cells was defined as the probability that a cell has divided at least once from the original population. The division index was defined as the average number of cell divisions that a cell in the original population has undergone.
# [2] = test system: human monocytes; assay: SeaHorse cellular flux assay (OCR, ECAR); format: cell-based; settings: C1q 25 μg ml-1 together with HMGB1 3 μg/ml, 24 h
# Description: Cell metabolism analysis using SeaHorse Cellular Flux assay. […] One hour prior to measurement, culture medium was exchanged for assay medium (unbuffered DMEM (Sigma), supplemented with 10 mM Glucose, 1 mM Pyruvate and 2 mM Glutamine for mitochondrial assays, or with 2 mM Glutamine alone for glycolytic assays. Reagents were injected during the measurement to achieve final concentrations of oligomycin (1 μM), carbonyl cyanide p-(trifluoromethoxy) phenylhydrazone (FCCP) ([…]), Rotenone/antimycin A (0.5 μM). Glucose (10 mM), and 2-Deoxy-D glucose (50 mM). Oxygen consumption rate (OCR) and Extracellular acidification rate (ECAR) values were measured using a SeaHorse XfP instrument (SeaHorse bioscience). Measured values were normalized to the number of live cells present in each well as determined by a trypan blue staining by the end of each run. For OCR/ECAR ratio calculations, an average of the last two basal readings was used for both OCR and ECAR.
# [3] = biological target: T1, RAGE (Homo sapiens, UniProt Q15109); assay: SPR assay of C1q and RAGE binding; settings: read-out: KD of C1q and RAGE binding, 25° C., 1:1 binding ratio supposed
# T1 construct: purchased R&D Systems
# Description: Surface Plasmon Resonance analysis (SPR): For real-time binding interaction studies, a BIAcore T200 instrument (GE Healthcare) was used. […] A 1:1 mixture of N-hydroxysuccinimide and N-ethyl-N-(dimethyaminopropyl) carbodiimide was used to activate 2 flow-cells of the CMS chip. […] The analytes were diluted in 1×PBS+0.01% (vol/vol) tween-20 buffer. The analytes were sequentially injected at a flow rate of 30 μl/min for 60 s at 25° C. The KD was dertermined using the BIAcore evaluation software 2.0 (GE Healthcare) supposing a 1:1 binding ratio.
# T1 sequence (Q15109 23-342 limits assumed): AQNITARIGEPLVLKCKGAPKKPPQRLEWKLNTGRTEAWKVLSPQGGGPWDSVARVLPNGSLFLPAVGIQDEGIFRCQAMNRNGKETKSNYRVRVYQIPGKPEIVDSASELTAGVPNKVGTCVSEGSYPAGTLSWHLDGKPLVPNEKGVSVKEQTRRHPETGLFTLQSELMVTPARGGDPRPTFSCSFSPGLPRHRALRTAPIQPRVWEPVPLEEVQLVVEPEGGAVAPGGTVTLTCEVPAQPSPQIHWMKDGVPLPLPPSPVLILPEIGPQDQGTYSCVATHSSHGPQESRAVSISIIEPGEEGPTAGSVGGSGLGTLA
substance,measurement,setting,value
"C1q: C1q purified from pooled normal human sera, obtained from Complement Technology",stimulation of T cells by monocytes exposed to both HMGB1 and C1q,[1],poor stimulators of T cells
same,HMGB1-induced alteration in cellular metabolism,[2],prevented the alteration in cellular metabolism
same,Kd,[3],0.855 µM
